Data taken from patent publication US20260193238A1, “PHARMACEUTICAL COMPOUNDS AS PARP7 AND/OR PARP1 INHIBITORS” (Duke Street Bio Limited, priority 2022, published 2026).

Target: PARP1 (Homo sapiens, UniProt P09874)
Experiment: PARP1 biochemical DELFIA assay (auto-PARylation)
Conditions: Table 1

Chain of PARP1 (P09874 whole entry): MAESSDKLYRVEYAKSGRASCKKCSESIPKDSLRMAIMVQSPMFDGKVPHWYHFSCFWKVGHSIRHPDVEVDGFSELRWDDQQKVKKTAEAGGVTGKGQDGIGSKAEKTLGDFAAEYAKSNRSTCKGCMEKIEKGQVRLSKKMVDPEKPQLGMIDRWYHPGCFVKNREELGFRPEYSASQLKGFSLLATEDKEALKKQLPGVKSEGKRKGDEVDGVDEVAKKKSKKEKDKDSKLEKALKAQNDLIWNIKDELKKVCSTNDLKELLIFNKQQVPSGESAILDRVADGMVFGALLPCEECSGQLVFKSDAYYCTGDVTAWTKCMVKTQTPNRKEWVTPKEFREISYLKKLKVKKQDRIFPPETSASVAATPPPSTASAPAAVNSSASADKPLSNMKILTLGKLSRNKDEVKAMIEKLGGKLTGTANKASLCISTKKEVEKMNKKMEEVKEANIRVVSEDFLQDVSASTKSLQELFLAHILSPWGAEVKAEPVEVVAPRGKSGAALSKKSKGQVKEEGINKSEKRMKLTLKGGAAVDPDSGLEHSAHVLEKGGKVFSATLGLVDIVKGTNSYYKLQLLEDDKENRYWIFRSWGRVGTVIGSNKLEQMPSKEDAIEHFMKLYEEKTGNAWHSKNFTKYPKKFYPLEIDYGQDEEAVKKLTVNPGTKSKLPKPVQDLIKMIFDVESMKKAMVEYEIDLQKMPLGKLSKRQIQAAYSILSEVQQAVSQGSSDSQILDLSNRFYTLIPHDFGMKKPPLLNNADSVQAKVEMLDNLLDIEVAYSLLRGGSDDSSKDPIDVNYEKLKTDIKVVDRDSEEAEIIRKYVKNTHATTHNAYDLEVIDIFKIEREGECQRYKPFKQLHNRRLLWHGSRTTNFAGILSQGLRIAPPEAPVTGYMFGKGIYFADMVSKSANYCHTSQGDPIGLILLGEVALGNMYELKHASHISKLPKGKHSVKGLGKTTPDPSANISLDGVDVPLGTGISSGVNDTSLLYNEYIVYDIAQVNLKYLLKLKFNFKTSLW

Compound | IC50
O=C(CCN1CCCC(c2cc(C(F)(F)F)c(=O)[nH]n2)C1)N1CCN(c2ccc(Cl)cn2)CC1 (single isomer, unassigned) [Compound 15a] | 100 to 1000 nM
6-(1-(3-oxo-3-(4-(5-(trifluoromethyl)pyrimidin-2-yl)piperazin-1-yl)propyl)azetidin-2-yl)-4-(trifluoromethyl)pyridazin-3(2H)-one [Compound 5rac] | 10 to 100 nM
O=C(CCC1CCN(c2ncc(C(F)(F)F)cn2)CC1)N1CCCC(c2cc(C(F)(F)F)c(=O)[nH]n2)C1 (single isomer, unassigned) [Compound 4b] | 100 to 1000 nM

Now from value to compound:

IC50 | Compound
100 to 1000 nM | O=C(CN1CCCC(c2cc(C(F)(F)F)c(=O)[nH]n2)C1)N1CCN(c2ncc(C(F)(F)F)cn2)CC1 (single isomer, unassigned) [Compound 14b]
100 to 1000 nM | O=C(CCC1CCN(c2ncc(C(F)(F)F)cn2)CC1)N1CCCC(c2cc(C(F)(F)F)c(=O)[nH]n2)C1 (single isomer, unassigned) [Compound 4a]
100 to 1000 nM | CNC(=O)c1ccc(N2CCN(C(=O)CCN3CCCC(c4cc(C(F)(F)F)c(=O)[nH]n4)C3)CC2)nc1 (single isomer, unassigned) [Compound 28a]

Same assay, conditions: Table 1A

Compound | IC50
CC1(C)CC(c2cc(C(F)(F)F)c(=O)[nH]n2)CN(CCC(=O)N2CCN(c3ncc(C(F)(F)F)cn3)CC2)C1 (single isomer, unassigned) [Compound 87b] | 10 to 100 nM
O=C(CN1CCCC1c1cc(C(F)(F)F)c(=O)[nH]n1)N1CCN(c2ncc(C(F)(F)F)s2)CC1 (racemic) [Compound 52rac] | ≤ 10 nM
N#Cc1cc(C2CCCN2CC(=O)N2CC(Nc3ncc(C(F)(F)F)cn3)C2)n[nH]c1=O (single isomer, unassigned) [Compound 123a] | 10 to 100 nM
N#Cc1cc(C2CCCN2CC(=O)N2CCN(c3ncc(C(F)(F)F)cn3)CC2)n[nH]c1=O (single isomer, unassigned) [Compound 98b, 3-oxo-6-(1-(2-oxo-2-(4-(5-(trifluoromethyl)pyrimidin-2-yl)piperazin-1-yl)ethyl)pyrrolidin-2-yl)-2,3-dihydropyridazine-4-carbonitrile] | 1000 to 10000 nM
Cc1[nH]c(=O)c(C(F)(F)F)cc1C1CCCN1CC(=O)N1CCN(c2ncc(C(F)(F)F)cn2)CC1 (single isomer, unassigned) [Compound 102a, 6-methyl-5-(1-(2-oxo-2-(4-(5-(trifluoromethyl)pyrimidin-2-yl)piperazin-1-yl)ethyl)pyrrolidin-2-yl)-3-(trifluoromethyl)pyridin-2(1H)-one] | 100 to 1000 nM
O=C(CN1CCCC1c1cc(C(F)(F)F)c(=O)[nH]n1)N1CCN(c2ncc(F)cn2)CC1 (single isomer, unassigned) [Compound 43b] | 1000 to 10000 nM
N#Cc1[nH]c(=O)c(C(F)(F)F)cc1C1CCCN1CC(=O)N1CCN(c2ncc(C(F)(F)F)cn2)CC1 (racemic) [Compound 115rac] | > 10000 nM
O=C(CN1CCCC1c1cc(C(F)(F)F)c(=O)[nH]n1)N1CCN(c2ccc(F)cn2)CC1 (single isomer, unassigned) [Compound 46a] | 10 to 100 nM
CNC(=O)c1ccc(N2CCN(C(=O)CN3CCC(c4n[nH]c(=O)c5ccccc45)CC3)CC2)cn1 [Compound 50] | 10 to 100 nM
N#Cc1cc(C2CCCN2CC(=O)N2CCN(c3nc4cc(F)ccc4o3)CC2)n[nH]c1=O (single isomer, unassigned) [Compound 149a] | 10 to 100 nM
O=C(CN1CCCC1c1c[nH]c(=O)c(Cl)c1)N1CCN(c2ncc(C(F)(F)F)cn2)CC1 (single isomer, unassigned) [Compound 78a, 3-chloro-5-(1-(2-oxo-2-(4-(5-(trifluoromethyl)pyrimidin-2-yl)piperazin-1-yl)ethyl)pyrrolidin-2-yl)pyridin-2(1H)-one] | 100 to 1000 nM
CNC(=O)c1ccc(N2CCN(C(=O)CN3CCCC3c3cc(C(F)(F)F)c(=O)[nH]n3)CC2)nc1 (single isomer, unassigned) [Compound 55a] | 1000 to 10000 nM
O=C(CN1CCCC1c1cc(C(F)(F)F)c(=O)[nH]n1)N1CCN(c2ccc(OC(F)(F)F)cn2)CC1 (single isomer, unassigned) [Compound 81b] | 10 to 100 nM
O=C(CN1CCCC1c1cc(C(F)(F)F)c(=O)[nH]n1)N1CCN(c2ncc(F)cc2F)CC1 (single isomer, unassigned) [Compound 83b] | > 10000 nM
N#Cc1cc(C2CCCN2CC(=O)N2CCN(c3nc4ccc(F)cc4o3)CC2)n[nH]c1=O (single isomer, unassigned) [Compound 111a] | 10 to 100 nM
O=C(CN1CCCC1c1cc(C(F)(F)F)c(=O)[nH]n1)N1CCC2(CC1)CN(c1ncc(C(F)(F)F)cn1)C2 (single isomer, unassigned) [Compound 101b] | 100 to 1000 nM
CCc1cc(C2CCCN2CC(=O)N2CCN(c3ncc(C(F)(F)F)cn3)CC2)c[nH]c1=O (single isomer, unassigned) [Compound 57b] | 1000 to 10000 nM
CN(c1ncc(C(F)(F)F)cn1)C1CCN(C(=O)CN2CCCC2c2cc(C(F)(F)F)c(=O)[nH]n2)CC1 (single isomer, unassigned) [Compound 107b] | > 10000 nM
CC1(C)CC(c2cc(C(F)(F)F)c(=O)[nH]n2)CN(CCC(=O)N2CCN(c3ncc(C(F)(F)F)cn3)CC2)C1 (single isomer, unassigned) [Compound 87a] | 100 to 1000 nM
O=C(CN1CCCC1c1cc(C2CC2)c(=O)[nH]n1)N1CCN(c2ncc(C(F)(F)F)cn2)CC1 (racemic) [Compound 65rac] | 10 to 100 nM
O=C(CCN1CCC(c2cc(C(F)(F)F)c(=O)[nH]n2)CC1)N1CCN(c2ncc(C(F)(F)F)cn2)CC1 [Compound 61] | 100 to 1000 nM
O=C(CN1CCC(c2n[nH]c(=O)c3ccccc23)CC1)N1CCN(c2ncc(C(F)(F)F)cn2)CC1 [Compound 51] | 10 to 100 nM

More lines, now with the values ahead:

IC50 | Compound
10 to 100 nM | O=C(CN1CCCC1c1cc(C(F)(F)F)c(=O)[nH]n1)N1CCN(c2ccc(C3CC3)cn2)CC1 (single isomer, unassigned) [Compound 79a]
1000 to 10000 nM | O=C(CN1Cc2ccccc2C1c1cc(C(F)(F)F)c(=O)[nH]n1)N1CCN(c2ncc(C(F)(F)F)cn2)CC1 (single isomer, unassigned) [Compound 104b, 6-(2-(2-oxo-2-(4-(5-(trifluoromethyl)pyrimidin-2-yl)piperazin-1-yl)ethyl)isoindolin-1-yl)-4-(trifluoromethyl)pyridazin-3(2H)-one]
≤ 10 nM | O=C(CN1CCCC1c1cc(C(F)(F)F)c(=O)[nH]n1)N1CCN(c2nc3ccc(F)cn3n2)CC1 (single isomer, unassigned) [Compound 128a]
100 to 1000 nM | O=C(CCN1CC2(c3cc(C(F)(F)F)c(=O)[nH]n3)CC1C2)N1CCN(c2ncc(C(F)(F)F)cn2)CC1 [Compound 103]
1000 to 10000 nM | N#Cc1cc(C2CCCN2CC(=O)N2CCN(c3nc4cc(Cl)ccc4o3)CC2)n[nH]c1=O (single isomer, unassigned) [Compound 121b]
10 to 100 nM | O=C(CN1CCCC1c1cc(C(F)(F)F)c(=O)[nH]n1)N1CCN(c2ccc(C(F)F)cn2)CC1 (single isomer, unassigned) [Compound 126a]
100 to 1000 nM | O=C(CN1CCOCC1c1cc(C(F)(F)F)c(=O)[nH]n1)N1CCN(c2ncc(C(F)(F)F)cn2)CC1 (single isomer, unassigned) [Compound 88b]
1000 to 10000 nM | O=C(CN1CCCC1c1cc(C(F)(F)F)c(=O)[nH]n1)N1CCN(c2ncc(Cl)cn2)CC1 (single isomer, unassigned) [Compound 35b]
1000 to 10000 nM | O=C(CN1CCCC1c1cc(C(F)(F)F)c(=O)[nH]n1)N1CCN(c2ncc(F)cc2C(F)(F)F)CC1 (single isomer, unassigned) [Compound 120a]
100 to 1000 nM | N#Cc1cc(C2CCCN2CC(=O)N2CCN(c3ncc(C(F)(F)F)cn3)CC2)n[nH]c1=O (single isomer, unassigned) [Compound 98a, 3-oxo-6-(1-(2-oxo-2-(4-(5-(trifluoromethyl)pyrimidin-2-yl)piperazin-1-yl)ethyl)pyrrolidin-2-yl)-2,3-dihydropyridazine-4-carbonitrile]
10 to 100 nM | CC(C)(C)c1cnc(N2CCN(C(=O)CN3CCCC3c3cc(C(F)(F)F)c(=O)[nH]n3)CC2)nc1 (single isomer, unassigned) [Compound 82a]
100 to 1000 nM | O=C(CN1CCCC1c1cc(C(F)(F)F)c(=O)[nH]n1)N1CCN(c2ccc(F)cn2)CC1 (single isomer, unassigned) [Compound 46b]
≤ 10 nM | O=C(CN1CCCC1c1cc(C(F)(F)F)c(=O)[nH]n1)N1CCN(c2nc3cc(Cl)ccc3o2)CC1 (single isomer, unassigned) [Compound 99a]
1000 to 10000 nM | O=C(CN1CCCC1c1c[nH]c(=O)c(C(F)(F)F)n1)N1CCN(c2ncc(C(F)(F)F)cn2)CC1 (single isomer, unassigned) [Compound 84b, 5-(1-(2-oxo-2-(4-(5-(trifluoromethyl)pyrimidin-2-yl)piperazin-1-yl)ethyl)pyrrolidin-2-yl)-3-(trifluoromethyl)pyrazin-2(1H)-one]
1000 to 10000 nM | COC1CC(c2cc(C(F)(F)F)c(=O)[nH]n2)N(CC(=O)N2CCN(c3ncc(C(F)(F)F)cn3)CC2)C1 (single isomer, unassigned) [Compound 138cis2, 6-(4-methoxy-1-(2-oxo-2-(4-(5-(trifluoromethyl)pyrimidin-2-yl)piperazin-1-yl)ethyl)pyrrolidin-2-yl)-4-(trifluoromethyl)pyridazin-3(2H)-one]
100 to 1000 nM | O=C(CN1CCCC1c1n[nH]c(=O)c2ccccc12)N1CCN(c2ncc(C(F)(F)F)cn2)CC1 (single isomer, unassigned) [Compound 38a, 4-(1-(2-oxo-2-(4-(5-(trifluoromethyl)pyrimidin-2-yl)piperazin-1-yl)ethyl)pyrrolidin-2-yl)phthalazin-1(2H)-one]
1000 to 10000 nM | O=C(CN1CCCC1c1cc(C(F)(F)F)c(=O)[nH]n1)N1CCN(c2nc3cc(Cl)ccc3o2)CC1 (single isomer, unassigned) [Compound 99b]
1000 to 10000 nM | CCc1[nH]c(=O)c(C(F)(F)F)cc1C1CCCN1CC(=O)N1CCN(c2ncc(C(F)(F)F)cn2)CC1 (single isomer, unassigned) [Compound 105a]
1000 to 10000 nM | CNC(=O)c1ccc(N2CCN(C(=O)CCN3CCCC3c3c[nH]c(=O)c(C(F)(F)F)c3)CC2)cn1 (single isomer, unassigned) [Compound 73b]
